Measured values reported in patent EP3789378A1, “PIPERIDINES OR PIPERIDONES SUBSTITUTED WITH UREA AND HETEROARYL” (Grünenthal GmbH, priority 2019, dated 2021).

target: T1, h FPR2 (Homo sapiens, UniProt P25090); experiment: Agonistic activity in hFPR2-Aq-CHO cells (FLIPR Calcium 5 fluorescence assay); assay type: cell-based; conditions: 11 point half log dilution, final assay concentration from 10µM
T1 construct: expressed in transfected cells
T1 sequence (P25090 1-351): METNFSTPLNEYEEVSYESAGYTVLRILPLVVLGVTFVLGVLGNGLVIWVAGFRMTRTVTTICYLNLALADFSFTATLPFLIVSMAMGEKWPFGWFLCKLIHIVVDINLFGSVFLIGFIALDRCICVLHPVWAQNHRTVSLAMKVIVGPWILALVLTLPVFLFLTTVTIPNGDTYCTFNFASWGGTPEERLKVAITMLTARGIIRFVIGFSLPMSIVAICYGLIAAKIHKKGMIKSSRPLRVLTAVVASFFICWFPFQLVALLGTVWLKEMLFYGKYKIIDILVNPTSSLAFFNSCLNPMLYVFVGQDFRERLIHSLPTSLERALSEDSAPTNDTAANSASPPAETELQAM
In short: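 hFPR2-Aq-CHO cells were loaded with Calcium 5 dye for 30 min at 37 °C and equilibrated 10 min at room temperature. Compound (11 points, 10 µM to 100 pM final) was added in HBSS/HEPES/probenecid buffer pH 7.4. Fluorescence rise over basal across 5 min, relative to no-compound wells, gave EC50.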

EC50 [nM]	Structure (SMILES)
0.5	COc1cnc([C@@H]2CN(CCO)CC[C@H]2NC(=O)Nc2ccc(Cl)cc2)c(F)c1 (relative stereo) [Ex-199, trans-1-(4-chloro-phenyl)-3-[3-fluoro-1'-(2-hydroxy-ethyl)-5-methoxy-1',2',3',4',5',6'-hexahydro-[2,3']bipyridinyl-4'-yl]-urea]
0.06	CS(=O)(=O)n1ccc(CN2CC[C@@H](NC(=O)Nc3ccc(Cl)cc3)[C@H](c3ccc(Cl)s3)C2)n1 (single isomer, unassigned) [Ex-77, trans-1-(4-chlorophenyl)-3-[3-(5-chlorothiophen-2-yl)-1-[(1-methanesulfonyl-1H-pyrazol-3-yl)methyl]piperidin-4-yl]urea]
13	COc1ccc([C@@H]2CN(C(=O)C3CCC(OC)CC3)CC[C@H]2NC(=O)Nc2ccc(Cl)cc2)nc1 (relative stereo) [Ex-81, trans-1-(4-chloro-phenyl)-3-[5-methoxy-1'-(4-methoxy-cyclohexanecarbonyl)-1',2',3',4',5',6'-hexahydro-[2,3']bipyridinyl-4'-yl]-urea]
57	COc1ccc([C@@H]2CN(CCCO)CC[C@H]2NC(=O)Nc2ccccc2)nc1 (relative stereo) [Ex-159, trans-1-[1-(3-Hydroxy-propyl)-3-(5-methoxy-pyridin-2-yl)-piperidin-4-yl]-3-phenyl-urea]
2	Cc1cncc(CN2CC[C@@H](NC(=O)Nc3ccc(Cl)cc3)[C@H](c3ccc(Cl)s3)C2)c1 (relative stereo) [Ex-72, trans-1-(4-chlorophenyl)-3-(3-(5-chlorothiophen-2-yl)-1-((5-methylpyridin-3-yl)methyl)piperidin-4-yl)urea]
2	O=C(Nc1ccc(Cl)cc1)N[C@@H]1CCN(Cc2cncc(F)c2)C[C@H]1c1ccc(Cl)s1 (relative stereo) [Ex-70, trans-1-(4-chlorophenyl)-3-(3-(5-chlorothiophen-2-yl)-1-((5-fluoropyridin-3-yl)methyl)piperidin-4-yl)urea]
4	CNCCC(=O)N1CC[C@@H](NC(=O)Nc2ccc(Cl)cc2)[C@H](c2ccc(OC)cn2)C1 (relative stereo) [Ex-97, trans-1-(4-chloro-phenyl)-3-[5-methoxy-1'-(3-methylamino-propionyl)-1',2',3',4',5',6'-hexahydro-[2,3']bipyridinyl-4'-yl]-urea]
0.5	COc1ccc([C@@H]2CN(CC3CC(OC)C3)CC[C@H]2NC(=O)Nc2ccc(Cl)cc2)nc1 (single isomer, unassigned) [Ex-195, trans-1-(4-chloro-phenyl)-3-[5-methoxy-1'-(3-methoxy-cyclobutylmethyl)-1',2',3',4',5',6'-hexahydro-[2,3']bipyridinyl-4'-yl]-urea]

same assay, conditions: agonistic response at 0.1µM

activation at 0.1 µM [%]	Structure (SMILES)
34	COc1ccc([C@@H]2CN(C(=O)CO)CC[C@H]2NC(=O)Nc2ccccc2)nc1 (relative stereo) [Ex-139, trans-1-[1-(2-Hydroxy-acetyl)-3-(5-methoxy-pyridin-2-yl)-piperidin-4-yl]-3-phenyl-urea]
